# From patent publication US11066396B2 (priority 2016, dated 2021)
# Experiments:
# HDAC1 = HDAC1 (Homo sapiens (Human), UniProt Q13547); settings: read-out: HDAC1 IC50
# HDAC8 = HDAC8 (Homo sapiens (Human), UniProt Q9BY41); settings: read-out: HDAC8 IC50
# Sequence of HDAC8 (Q9BY41 whole entry): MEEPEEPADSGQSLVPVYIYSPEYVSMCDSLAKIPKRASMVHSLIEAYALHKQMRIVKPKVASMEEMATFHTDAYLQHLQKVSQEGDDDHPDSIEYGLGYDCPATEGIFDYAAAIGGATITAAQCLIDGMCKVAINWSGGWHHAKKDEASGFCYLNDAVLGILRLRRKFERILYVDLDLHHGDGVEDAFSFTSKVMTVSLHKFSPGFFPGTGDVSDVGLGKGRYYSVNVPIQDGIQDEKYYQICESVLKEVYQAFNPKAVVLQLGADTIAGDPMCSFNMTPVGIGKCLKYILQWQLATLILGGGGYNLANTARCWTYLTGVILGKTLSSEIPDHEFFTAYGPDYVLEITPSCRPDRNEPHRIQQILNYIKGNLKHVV
# Sequence of HDAC1 (Q13547 whole entry): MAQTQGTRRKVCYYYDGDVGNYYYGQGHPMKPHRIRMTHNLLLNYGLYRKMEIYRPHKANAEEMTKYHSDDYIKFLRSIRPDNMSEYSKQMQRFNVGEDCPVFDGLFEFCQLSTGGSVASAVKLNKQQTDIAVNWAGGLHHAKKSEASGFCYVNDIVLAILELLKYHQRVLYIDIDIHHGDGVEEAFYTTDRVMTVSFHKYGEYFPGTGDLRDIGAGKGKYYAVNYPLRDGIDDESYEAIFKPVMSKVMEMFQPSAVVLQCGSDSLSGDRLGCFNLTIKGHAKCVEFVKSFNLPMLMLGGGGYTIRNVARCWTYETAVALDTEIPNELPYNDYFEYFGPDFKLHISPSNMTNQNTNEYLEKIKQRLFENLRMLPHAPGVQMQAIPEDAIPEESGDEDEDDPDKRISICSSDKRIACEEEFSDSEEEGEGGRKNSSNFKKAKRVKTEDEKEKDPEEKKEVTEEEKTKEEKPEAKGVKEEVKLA
Structure (SMILES),IC50 (HDAC1) [nM],IC50 (HDAC8) [nM]
"O=C1CCC(c2ccccc2Cl)N1c1ccc(-c2noc(C(F)(F)F)n2)c(F)c1 (racemic) [Example 37, 5-(2-chlorophenyl)-1-(3-fluoro-4-(5-(trifluoromethyl)-1,2,4-oxadiazol-3-yl)phenyl)pyrrolidin-2-one]",16000,10000
"Cc1noc(C2CCCC(=O)N2c2ccc(-c3noc(C(F)(F)F)n3)cc2)n1 (racemic) [Example 48, 6-(3-methyl-1,2,4-oxadiazol-5-yl)-1-(4-(5-(trifluoromethyl)-1,2,4-oxadiazol-3-yl)phenyl)piperidin-2-one]",2200,1800
"O=C(C1CCS(=O)(=O)C1)N(Cc1ccc(-c2noc(C(F)(F)F)n2)cn1)c1cccc(F)c1 (racemic) [Example 54, N-(3-fluorophenyl)-N-((5-(5-(trifluoromethyl)-1,2,4-oxadiazol-3-yl)pyridin-2-yl)methyl)tetrahydrothiophene-3-carboxamide 1,1-dioxide]",270,2600
"CCN1CCCC(C(=O)N(Cc2ccc(-c3noc(C(F)(F)F)n3)cn2)c2cccc(F)c2)C1 (racemic) [Example 57, 1-ethyl-N-(3-fluorophenyl)-N-((5-(5-(trifluoromethyl)-1,2,4-oxadiazol-3-yl)pyridin-2-yl)methyl)piperidine-3-carboxamide]",240,2000
"CC(C)N1CCCC(C(=O)N(Cc2ccc(-c3noc(C(F)(F)F)n3)cn2)c2cccc(F)c2)C1 (racemic) [Example 61, N-(3-fluorophenyl)-1-isopropyl-N-((5-(5-(trifluoromethyl)-1,2,4-oxadiazol-3-yl)pyridin-2-yl)methyl)piperidine-3-carboxamide]",260,2000
"CC1(C)CC(C(=O)N(Cc2ccc(-c3noc(C(F)(F)F)n3)cn2)c2cccc(F)c2)CCO1 (racemic) [Example 63, N-(3-fluorophenyl)-2,2-dimethyl-N-((5-(5-(trifluoromethyl)-1,2,4-oxadiazol-3-yl)pyridin-2-yl)methyl)tetrahydro-2H-pyran-4-carboxamide]",260,1500
"Cc1cn(C(C)C(=O)N(Cc2ccc(-c3noc(C(F)(F)F)n3)cn2)c2cccc(F)c2)nn1 (racemic) [Example 64, N-(3-fluorophenyl)-2-(4-methyl-1H-1,2,3-triazol-1-yl)-N-((5-(5-(trifluoromethyl)-1,2,4-oxadiazol-3-yl)pyridin-2-yl)methyl)propanamide]",200,2800
"CC(C(=O)N(Cc1ccc(-c2noc(C(F)(F)F)n2)cc1)c1cccc(C(F)(F)F)c1)n1cncn1 (racemic) [Example 66, 2-(1H-1,2,4-triazol-1-yl)-N-(4-(5-(trifluoromethyl)-1,2,4-oxadiazol-3-yl)benzyl)-N-(3-(trifluoromethyl)phenyl)propanamide]",720,1900
"O=C(C1CC1c1cncnc1)N(Cc1ccc(-c2noc(C(F)(F)F)n2)cc1)c1cccc(C(F)(F)F)c1 (racemic) [Example 73, 2-(pyrimidin-5-yl)-N-(4-(5-(trifluoromethyl)-1,2,4-oxadiazol-3-yl)benzyl)-N-(3-(trifluoromethyl)phenyl)cyclopropane-1-carboxamide]",940,2200
"CC(Cn1cncn1)C(=O)N(Cc1ccc(-c2noc(C(F)(F)F)n2)cc1)c1cccc(C(F)(F)F)c1 (racemic) [Example 79, 2-methyl-3-(1H-1,2,4-triazol-1-yl)-N-(4-(5-(trifluoromethyl)-1,2,4-oxadiazol-3-yl)benzyl)-N-(3-(trifluoromethyl)phenyl)propanamide]",1300,3400
"O=C(CC1CNCCO1)N(Cc1ccc(-c2noc(C(F)(F)F)n2)cc1)c1cccc(C(F)(F)F)c1 (racemic) [Example 82, 2-(morpholin-2-yl)-N-(4-(5-(trifluoromethyl)-1,2,4-oxadiazol-3-yl)benzyl)-N-(3-(trifluoromethyl)phenyl)acetamide]",860,2500
"O=C(C1COCCO1)N(Cc1ccc(-c2noc(C(F)(F)F)n2)cc1)c1cccc(C(F)(F)F)c1 (racemic) [Example 84, N-(4-(5-(trifluoromethyl)-1,2,4-oxadiazol-3-yl)benzyl)-N-(3-(trifluoromethyl)phenyl)-1,4-dioxane-2-carboxamide]",950,2400
"O=C(CC1COCCO1)N(Cc1ccc(-c2noc(C(F)(F)F)n2)cc1)c1cccc(C(F)(F)F)c1 (racemic) [Example 95, 2-(1,4-dioxan-2-yl)-N-(4-(5-(trifluoromethyl)-1,2,4-oxadiazol-3-yl)benzyl)-N-(3-(trifluoromethyl)phenyl)acetamide]",1300,2000
"O=C1CCC(c2cccc(Cl)c2)N1c1ccc(-c2noc(C(F)(F)F)n2)cc1F (racemic) [Example 116, 5-(3-chlorophenyl)-1-(2-fluoro-4-(5-(trifluoromethyl)-1,2,4-oxadiazol-3-yl)phenyl)pyrrolidin-2-one]",1600,14000
"Fc1ccccc1C1COCCN1c1ccc(-c2noc(C(F)(F)F)n2)cn1 (racemic) [Example 135, 3-(2-fluorophenyl)-4-(5-(5-(trifluoromethyl)-1,2,4-oxadiazol-3-yl)pyridin-2-yl)morpholine]",210,1300
"Fc1cccc(C2COCCN2c2ccc(-c3noc(C(F)(F)F)n3)cn2)c1 (racemic) [Example 137, 3-(3-fluorophenyl)-4-(5-(5-(trifluoromethyl)-1,2,4-oxadiazol-3-yl)pyridin-2-yl)morpholine]",440,2300

Structure (SMILES),IC50 (HDAC1) [nM],IC50 (HDAC8) [nM]
"Fc1ccc(C2COCCN2c2ccc(-c3noc(C(F)(F)F)n3)cn2)cc1 (racemic) [Example 142, 3-(4-fluorophenyl)-4-(5-(5-(trifluoromethyl)-1,2,4-oxadiazol-3-yl)pyridin-2-yl)morpholine]",500,1900
"CC(C)(C)OC(=O)N1CC(=O)N(c2ccc(-c3noc(C(F)(F)F)n3)cc2)[C@H](c2ccccc2)C1 (racemic) [Example 163, tert-butyl 3-oxo-5-phenyl-4-(4-(5-(trifluoromethyl)-1,2,4-oxadiazol-3-yl)phenyl)piperazine-1-carboxylate]",1700,4300
"FC(F)(F)c1nc(-c2ccnc(OC3CCCc4ccc(Cl)nc43)c2)no1 (racemic) [Example 226, 2-chloro-8-({4-[5-(trifluoromethyl)-1,2,4-oxadiazol-3-yl]pyridin-2-yl}oxy)-5,6,7,8-tetrahydroquinoline]",1100,850
"CC1(C)CC(c2ccccc2)N(c2ccc(-c3noc(C(F)(F)F)n3)cc2F)C1=O (racemic) [Example 312, 1-{2-fluoro-4-[5-(trifluoromethyl)-1,2,4-oxadiazol-3-yl]phenyl}-3,3-dimethyl-5-phenylpyrrolidin-2-one]",1400,45000
"O=C1CCC(c2c(F)cccc2F)N1c1ccc(-c2noc(C(F)(F)F)n2)cc1F (racemic) [Example 314, 5-(2,6-difluorophenyl)-1-{2-fluoro-4-[5-(trifluoromethyl)-1,2,4-oxadiazol-3-yl]phenyl}pyrrolidin-2-one]",11000,6500
"COc1ccccc1C1CCC(=O)N1c1ccc(-c2noc(C(F)(F)F)n2)cc1F (racemic) [Example 315, 1-{2-fluoro-4-[5-(trifluoromethyl)-1,2,4-oxadiazol-3-yl]phenyl}-5-(2-methoxyphenyl)pyrrolidin-2-one]",2100,8000
"Cc1noc([C@H]2CCCCN2c2ccc(-c3noc(C(F)(F)F)n3)cn2)n1 [Example 138, (R)-3-methyl-5-(1-(5-(5-(trifluoromethyl)-1,2,4-oxadiazol-3-yl)pyridin-2-yl)piperidin-2-yl)-1,2,4-oxadiazole]",,1200
"FC(F)(F)c1nc(-c2ccc(N3CCOC[C@H]3c3ccccc3)nc2)no1 [Example 144, (R)-3-phenyl-4-(5-(5-(trifluoromethyl)-1,2,4-oxadiazol-3-yl)pyridin-2-yl)morpholine]",,2700
"Cc1cc(=O)n2c(n1)CN(c1ccc(-c3noc(C(F)(F)F)n3)cn1)CC2 [Example 158, 2-methyl-8-(5-(5-(trifluoromethyl)-1,2,4-oxadiazol-3-yl)pyridin-2-yl)-6,7,8,9-tetrahydro-4H-pyrazino[1,2-a]pyrimidin-4-one]",,750
"O=C1CCc2ccc(F)cc2N1Cc1ccc(-c2noc(C(F)(F)F)n2)cc1 [Example 318, 7-fluoro-1-{4-[5-(trifluoromethyl)-1,2,4-oxadiazol-3-yl]benzyl}-3,4-dihydroquinolin-2(1H)-one]",,1800
"FC(F)(F)c1nc(-c2ccc(CNc3cc[nH]n3)nc2)no1 [Example 432, N-({5-[5-(trifluoromethyl)-1,2,4-oxadiazol-3-yl]pyridin-2-yl}methyl)-1H-pyrazol-3-amine]",,1300
"O=C(c1cccc(NCc2ccc(-c3noc(C(F)(F)F)n3)cn2)c1)N1CCCC1 [Example 439, 3-(pyrrolidin-1-ylcarbonyl)-N-({5-[5-(trifluoromethyl)-1,2,4-oxadiazol-3-yl]pyridin-2-yl}methyl)aniline]",,1400
"O=C(Nc1ccccc1)c1cccc(NCc2ccc(-c3noc(C(F)(F)F)n3)cn2)c1 [Example 440, N-phenyl-3-[({5-[5-(trifluoromethyl)-1,2,4-oxadiazol-3-yl]pyridin-2-yl}methyl)amino]benzamide]",,280
"O=C(NCc1ccccc1)c1ccccc1NCc1ccc(-c2noc(C(F)(F)F)n2)cn1 [Example 448, N-benzyl-2-[({5-[5-(trifluoromethyl)-1,2,4-oxadiazol-3-yl]pyridin-2-yl}methyl)amino]benzamide]",,530
"CC(=O)N1CCC(CNCc2ccc(-c3noc(C(F)(F)F)n3)cn2)CC1 [Example 455, 1-(1-acetylpiperidin-4-yl)-N-({5-[5-(trifluoromethyl)-1,2,4-oxadiazol-3-yl]pyridin-2-yl}methyl)methanamine]",,3800
